Test results taken from the supplement of paper PMC11061612.

How the values were obtained:
[1] = system: CPC-N (Small Cell Lung Carcinoma); assay: combination Emax (second highest fraction inhibited in the dose matrix, 72 h); higher = more inhibition; extreme values may be limits of the assay
Procedure, shortened: (§1)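 Cell lines grown in DMEM/F12 or RPMI with 10% FBS were plated in 1536-well plates and held 24 hours at 37°C, 5% CO2 before 72 hours of exposure to two-drug dose matrices, with DMSO typically at 0.2%. CellTiter-Glo 2.0 luminescence gave viability, which was converted to inhibition. Vehicle wells were set to 0 and blank wells to 1. Combination Emax is the second-highest inhibition in the matrix, and Bliss excess is the observed combination effect minus the expected EA + EB − EA·EB, where EA and EB are the single-agent effects.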

[2] = system: MS-1 (Small Cell Lung Carcinoma); assay: as above
Procedure, shortened: as §1

IST-MEL1 (Melanoma) [3] = assay: as above
Procedure, shortened: as §1

[4] = system: MONO-MAC-6 (Acute Myeloid Leukemia); assay: as above
Procedure, shortened: as §1

ES6 (Ewing's Sarcoma) [5] = assay: as above
Procedure, shortened: as §1

[6] = system: NAMALWA (Burkitt's Lymphoma); assay: as above
Procedure, shortened: as §1

[7] = system: CPC-N (Small Cell Lung Carcinoma); assay: Bliss excess, mean over the matrix (fraction); higher = more synergy
Procedure, shortened: as §1

[8] = system: SKG-IIIa (Cervical Carcinoma); assay: as above
Procedure, shortened: as §1

[9] = system: C-33-A (Cervical Carcinoma); assay: as above
Procedure, shortened: as §1

[10] = system: MS-1 (Small Cell Lung Carcinoma); assay: as above
Procedure, shortened: as §1

IST-MEL1 (Melanoma) [11] = assay: as above
Procedure, shortened: as §1

NCI-H226 (Mesothelioma) = assay: as above
Procedure, shortened: as §1

[12] = system: SCC-4 (Oral Cavity Carcinoma); assay: as above
Procedure, shortened: as §1

ES6 (Ewing's Sarcoma) [13] = assay: as above
Procedure, shortened: as §1

[14] = system: T84 (Colorectal Carcinoma); assay: as above
Procedure, shortened: as §1

[15] = system: IA-LM (Non-Small Cell Lung Carcinoma); assay: as above
Procedure, shortened: as §1

[16] = system: NAMALWA (Burkitt's Lymphoma); assay: as above
Procedure, shortened: as §1

SK-N-SH (Neuroblastoma) = assay: as above
Procedure, shortened: as §1

[17] = system: LS-1034 (Colorectal Carcinoma); assay: as above
Procedure, shortened: as §1

[18] = system: MDA-MB-415 (Breast Carcinoma); assay: as above
Procedure, shortened: as §1
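Throughout, for Bliss excess, mean over the matrix: after 72 h of two-drug dosing.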

| Structure (SMILES) | combination Emax [1] | combination Emax [2] | combination Emax (IST-MEL1 (Melanoma) [3]) | combination Emax [4] | combination Emax (ES6 (Ewing's Sarcoma) [5]) | combination Emax [6] | Bliss excess [7] | Bliss excess [8] | Bliss excess [9] | Bliss excess [10] | Bliss excess (IST-MEL1 (Melanoma) [11]) | Bliss excess (NCI-H226 (Mesothelioma)) | Bliss excess [12] | Bliss excess (ES6 (Ewing's Sarcoma) [13]) | Bliss excess [14] | Bliss excess [15] | Bliss excess [16] | Bliss excess (SK-N-SH (Neuroblastoma)) | Bliss excess [17] | Bliss excess [18] |
| --- | --- | --- | --- | --- | --- | --- | --- | --- | --- | --- | --- | --- | --- | --- | --- | --- | --- | --- | --- | --- |
| C=CCn1c(=O)c2cnc(Nc3ccc(N4CCN(C)CC4)cc3)nc2n1-c1cccc(C(C)(C)O)n1 [AZD1775] + CCc1c2c(nc3ccc(O)cc13)-c1cc3c(c(=O)n1C2)COC(=O)[C@]3(O)CC [SN-38] (first compound max 1 µM, partner max 0.3 µM) | 0.923 | 0.86 | 0.825 | 1 | 0.607 | 1 | 0.0523 | -0.0319 | 0.0561 | -0.0292 | -0.0827 | -0.0755 | -0.0732 | -0.0995 | 0.0598 | -0.0699 | -0.0172 | -0.019 | 0.0498 | -0.009 |
| C=CCn1c(=O)c2cnc(Nc3ccc(N4CCN(C)CC4)cc3)nc2n1-c1cccc(C(C)(C)O)n1 [AZD1775] + Nc1ccn([C@@H]2O[C@H](CO)[C@@H](O)C2(F)F)c(=O)n1 [Gemcitabine] (first compound max 1 µM, partner max 0.3 µM) | 0.897 | 0.838 | 0.662 | 1 | 0.556 | 1 | – | 0.0393 | 0.0713 | -0.0721 | 0.0144 | 0.0067 | -0.0574 | -0.0385 | 0.0564 | -0.0454 | 0.0247 | -0.0051 | 0.0159 | 0.0228 |
| CN(CCO)CC[C@H](CSc1ccccc1)Nc1ccc(S(=O)(=O)NC(=O)c2ccc(N3CCC([C@@H](O)c4ccccc4-c4ccc(Cl)cc4)CC3)cc2)cc1S(=O)(=O)C(F)(F)F [AZD4320] + CC(=O)O[C@H]1C(=O)[C@@]2(C)[C@H]([C@H](OC(=O)c3ccccc3)[C@]3(O)C[C@H](OC(=O)[C@H](O)[C@@H](NC(=O)c4ccccc4)c4ccccc4)C(C)=C1C3(C)C)[C@]1(OC(C)=O)CO[C@@H]1C[C@@H]2O [Paclitaxel] (first compound max 1 µM, 7x7, partner max 3 µM) | 1 | 0.971 | 0.977 | 1 | 0.779 | 1 | 0.0262 | 0.133 | 0.0811 | 0.0825 | 0.238 | 0.131 | 0.0946 | 0.101 | -0.0222 | 0.08 | -0.01 | -0.0254 | 0.0038 | -0.0059 |
| CN(CCO)CC[C@H](CSc1ccccc1)Nc1ccc(S(=O)(=O)NC(=O)c2ccc(N3CCC([C@@H](O)c4ccccc4-c4ccc(Cl)cc4)CC3)cc2)cc1S(=O)(=O)C(F)(F)F [AZD4320] + CS(=O)(=O)CCNCc1ccc(-c2ccc3ncnc(Nc4ccc(OCc5cccc(F)c5)c(Cl)c4)c3c2)o1 [Lapatinib] (first compound max 1 µM, 7x7, partner max 10 µM) | 0.977 | 0.971 | 0.364 | 0.885 | 0.971 | 0.373 | 0.052 | -0.0081 | 0.0074 | 0.068 | -0.0011 | -0.0437 | 0.0692 | -0.0017 | -0.0061 | -0.0137 | -0.015 | 0.112 | 0.0441 | 0.0355 |
| CN(CCO)CC[C@H](CSc1ccccc1)Nc1ccc(S(=O)(=O)NC(=O)c2ccc(N3CCC([C@@H](O)c4ccccc4-c4ccc(Cl)cc4)CC3)cc2)cc1S(=O)(=O)C(F)(F)F [AZD4320] + Nc1ccn([C@@H]2O[C@H](CO)[C@@H](O)C2(F)F)c(=O)n1 [Gemcitabine] (first compound max 1 µM, 7x7, partner max 0.3 µM) | 0.962 | 0.78 | – | 1 | 0.824 | 0.99 | 0.0415 | 0.0259 | 0.0113 | -0.0023 | 0.134 | -0.0209 | 0.0027 | 0.0253 | -0.0434 | 0.0296 | – | 0.0106 | -0.0357 | 0.0347 |
| Cc1c2c(nn1C)CSCc1cc(n(C)n1)CSc1cc(c3ccccc3c1)OCCCc1c(C(=O)O)n(C)c3c-2c(Cl)ccc13 [AZD5991] + CC(=O)O[C@H]1C(=O)[C@@]2(C)[C@H]([C@H](OC(=O)c3ccccc3)[C@]3(O)C[C@H](OC(=O)[C@H](O)[C@@H](NC(=O)c4ccccc4)c4ccccc4)C(C)=C1C3(C)C)[C@]1(OC(C)=O)CO[C@@H]1C[C@@H]2O [Paclitaxel] (first compound max 1 µM, 7x7, partner max 3 µM) | 0.773 | 0.867 | 0.587 | 1 | 0.312 | 1 | -0.0539 | -0.036 | -0.0095 | -0.0135 | -0.0215 | -0.008 | -0.0628 | 0.005 | -0.0379 | -0.0452 | 0.0041 | -0.0507 | -0.0473 | 0.0268 |
| Cc1c2c(nn1C)CSCc1cc(n(C)n1)CSc1cc(c3ccccc3c1)OCCCc1c(C(=O)O)n(C)c3c-2c(Cl)ccc13 [AZD5991] + CS(=O)(=O)CCNCc1ccc(-c2ccc3ncnc(Nc4ccc(OCc5cccc(F)c5)c(Cl)c4)c3c2)o1 [Lapatinib] (first compound max 1 µM, 7x7, partner max 10 µM) | 0.327 | 0.535 | 0.295 | 1 | 0.515 | 0.977 | -0.0429 | 0.0014 | 0.0485 | -0.0273 | -0.005 | -0.0183 | 0.0449 | 0.0331 | 0.0239 | -0.0292 | -0.0204 | 0.0615 | -0.0332 | 0.0015 |
| Cc1c2c(nn1C)CSCc1cc(n(C)n1)CSc1cc(c3ccccc3c1)OCCCc1c(C(=O)O)n(C)c3c-2c(Cl)ccc13 [AZD5991] + Nc1ccn([C@@H]2O[C@H](CO)[C@@H](O)C2(F)F)c(=O)n1 [Gemcitabine] (first compound max 1 µM, 7x7, partner max 0.3 µM) | 0.754 | 0.722 | 0.606 | 1 | 0.529 | 1 | -0.0387 | -0.0271 | 0.0332 | -0.0371 | -0.0045 | -0.024 | -0.0333 | -0.002 | -0.0187 | -0.0384 | -0.0379 | -0.0198 | -0.0473 | -0.0407 |
| C[C@@H]1COCCN1c1cc(C2([S@](C)(=N)=O)CC2)nc(-c2ccnc3[nH]ccc23)n1 [AZD6738] + C1CC(C1)(C(=O)[O-])C(=O)[O-].N.N.[Pt+2] [Carboplatin] (first compound max 10 µM, 7x7, partner max 10 µM) | 0.8 | 0.659 | 0.679 | 0.858 | – | 0.896 | -0.0391 | -0.0079 | -0.0043 | -0.093 | -0.0271 | -0.0383 | 0 | -0.0116 | -0.0041 | -0.047 | -0.0293 | -0.028 | -0.0575 | 0.0134 |
| C[C@@H]1COCCN1c1cc(C2([S@](C)(=N)=O)CC2)nc(-c2ccnc3[nH]ccc23)n1 [AZD6738] + Nc1ccn([C@@H]2O[C@H](CO)[C@@H](O)C2(F)F)c(=O)n1 [Gemcitabine] (first compound max 10 µM, 7x7, partner max 0.3 µM) | 0.949 | 0.961 | 0.768 | 1 | 0.731 | 1 | 0.0021 | 0.0657 | 0.032 | 0.0014 | 0.0314 | 0.041 | 0.0044 | -0.0072 | 0.0477 | -0.027 | 0.0357 | 0.0248 | 0.0853 | 0.065 |
| Cc1cc2ncnn2cc1Nc1ncc2c(n1)n(C1CCOCC1)c(=O)n2C [AZD7648] + COc1cc([C@@H]2c3cc4c(cc3[C@@H](O[C@@H]3O[C@@H]5CO[C@@H](C)O[C@H]5[C@H](O)[C@H]3O)[C@H]3COC(=O)[C@H]23)OCO4)cc(OC)c1O [Etoposide] (first compound max 10 µM, 7x7, partner max 10 µM) | 0.906 | 0.842 | 0.638 | 1 | 0.36 | 0.985 | 0.0611 | 0.0558 | 0.0997 | 0.0655 | 0.0192 | 0.0215 | 0.0043 | -0.0009 | -0.0105 | -0.0116 | 0.0745 | 0.0634 | -0.0205 | 0.0025 |
| N#Cc1cnc(Nc2cc(NC[C@H]3CNCCO3)c(C(F)(F)F)cn2)cn1 [SRA737] + C=CCn1c(=O)c2cnc(Nc3ccc(N4CCN(C)CC4)cc3)nc2n1-c1cccc(C(C)(C)O)n1 [AZD1775] (first compound max 10 µM, partner max 1 µM) | – | 0.926 | 0.655 | 1 | 0.349 | 0.988 | 0.0589 | -0.031 | 0.0919 | 0.078 | 0.046 | -0.0457 | 0.0374 | 0.0022 | 0.0022 | 0.0224 | 0.0724 | 0.0281 | 0.142 | 0.0133 |
| N#Cc1cnc(Nc2cc(NC[C@H]3CNCCO3)c(C(F)(F)F)cn2)cn1 [SRA737] + Nc1ccn([C@@H]2O[C@H](CO)[C@@H](O)C2(F)F)c(=O)n1 [Gemcitabine] (first compound max 10 µM, 7x7, partner max 0.3 µM) | 0.916 | 0.945 | 0.709 | 1 | 0.599 | 1 | 0.035 | 0.13 | 0.0954 | 0.0566 | -0.0023 | 0.0349 | – | -0.0212 | 0.0819 | -0.0365 | 0.0256 | -0.0168 | 0.145 | 0.115 |
